In ChEMBL document CHEMBL3351378, “Phenyl acetate derivatives, fluorine-substituted on the phenyl group, as rapid recovery hypnotic agents with reflex depression” (Eur J Med Chem, 2015):
Activity calls are given as the source filed them. No cut-off for these calls is given here.

Assays:
[1] = biological target: Glutamate NMDA receptor (Rattus norvegicus) (UniProt P35439+Q00959+Q00960+Q00961+Q62645+Q8VHN2+Q9R1M7); test: Displacement of [3H]MK801 from NMDA receptor in Sprague-Dawley rat cerebral cortex membrane at 50 umol by liquid scintillation counting; type: tissue-based
Rattus norvegicus [2] = test: Induction of hypnotic activity in iv dosed Sprague-Dawley rat assessed as loss of righting reflex; type: functional
[3] = Toxicity in Sprague-Dawley rat assessed as motor coordination by rotarod test; type: organism-based; settings: in vivo
[4] = Therapeutic index, ratio of […] for Sprague-Dawley rat by rotarod test to HD50 for hypnotic activity in iv dosed Sprague-Dawley rat; type: organism-based; settings: in vivo, read-out: TI
Rattus norvegicus [5] = test: Induction of hypnotic activity in iv dosed Sprague-Dawley rat assessed as time duration of loss of righting reflex; type: functional; note: test concentration or dose not given here
Rattus norvegicus [6] = test: Induction of hypnotic activity in iv dosed Sprague-Dawley rat assessed as reflex depression 10 secs following injection; type: functional, organism-based
Rattus norvegicus [7] = test: Induction of hypnotic activity in iv dosed Sprague-Dawley rat assessed as reflex depression 20 secs following injection; type: functional, organism-based

SMILES: CCOC(=O)Cc1cc(F)c(OCC(=O)N(CC)CC)c(OCC)c1
- Activity [1]: inactive
- HD50 (Rattus norvegicus [2]): 18.5 mg/kg
- TD50 [3]: 224 mg/kg
- selectivity ratio [4]: 12.1
- Time (Rattus norvegicus [5]): 66.5 s

SMILES: CCN(CC)C(=O)COc1cc(F)c(CC(=O)OCC(F)(F)F)cc1OC
- Activity [1]: inactive
- HD50 (Rattus norvegicus [2]): 18.4 mg/kg
- TD50 [3]: 171 mg/kg
- selectivity ratio [4]: 9.3
- Time (Rattus norvegicus [5]): 75.4 s

SMILES: CCCOC(=O)Cc1ccc(OCC(=O)N(CC)CC)c(OC)c1F
- Activity [1]: inactive
- HD50 (Rattus norvegicus [2]): 19.4 mg/kg
- TD50 [3]: 169 mg/kg
- selectivity ratio [4]: 8.7
- Time (Rattus norvegicus [5]): 76.6 s

SMILES: CCCOC(=O)Cc1cc(F)c(OCC(=O)N(CC)CC)c(OCC)c1
- Activity [1]: inactive
- HD50 (Rattus norvegicus [2]): 14.8 mg/kg
- TD50 [3]: 175 mg/kg
- selectivity ratio [4]: 11.8
- Time (Rattus norvegicus [5]): 76.6 s

SMILES: CCCOc1cc(CC(=O)OC(C)C)c(F)cc1OCC(=O)N(CC)CC
- Activity [1]: inactive
- HD50 (Rattus norvegicus [2]): 10.6 mg/kg
- TD50 [3]: 102 mg/kg
- selectivity ratio [4]: 9.6
- Time (Rattus norvegicus [5]): 133.9 s

SMILES: CCOC(=O)Cc1ccc(OCC(=O)N(CC)CC)c(OCC)c1F
- Activity [1]: inactive
- HD50 (Rattus norvegicus [2]): 19.8 mg/kg
- TD50 [3]: 200 mg/kg
- selectivity ratio [4]: 10.1
- Time (Rattus norvegicus [5]): 77.7 s

SMILES: CCN(CC)C(=O)COc1c(F)cc(CC(=O)OC(C)C(F)(F)F)cc1OC (stereo unspecified)
- Activity [1]: inactive
- HD50 (Rattus norvegicus [2]): 15.4 mg/kg
- TD50 [3]: 148 mg/kg
- selectivity ratio [4]: 9.6
- Time (Rattus norvegicus [5]): 84.2 s

SMILES: CCOC(=O)Cc1cc(OC)c(OCC(=O)N(CC)CC)cc1F
- Activity [1]: inactive
- HD50 (Rattus norvegicus [2]): 10 mg/kg
- TD50 [3]: 113 mg/kg
- selectivity ratio [4]: 11.3
- Time (Rattus norvegicus [5]): 82.2 s

SMILES: CCN(CC)C(=O)COc1cc(F)c(CC(=O)OC(C)C(F)(F)F)cc1OC (stereo unspecified)
- Activity [1]: inactive
- HD50 (Rattus norvegicus [2]): 15.6 mg/kg
- TD50 [3]: 151 mg/kg
- selectivity ratio [4]: 9.7
- Time (Rattus norvegicus [5]): 88.9 s

SMILES: CCOc1cc(CC(=O)OCC(F)(F)F)c(F)cc1OCC(=O)N(CC)CC
- Activity [1]: inactive
- HD50 (Rattus norvegicus [2]): 9.8 mg/kg
- TD50 [3]: 113 mg/kg
- selectivity ratio [4]: 11.5
- Time (Rattus norvegicus [5]): 186.1 s

SMILES: CCN(CC)C(=O)COc1ccc(CC(=O)OCC(F)(F)F)c(F)c1OC
- Activity [1]: inactive
- HD50 (Rattus norvegicus [2]): 22.8 mg/kg
- TD50 [3]: 185 mg/kg
- selectivity ratio [4]: 8.1
- Time (Rattus norvegicus [5]): 88.7 s

SMILES: CCCCOC(=O)Cc1cc(OCC)c(OCC(=O)N(CC)CC)cc1F
- Activity [1]: inactive
- HD50 (Rattus norvegicus [2]): 9.7 mg/kg
- TD50 [3]: 109 mg/kg
- selectivity ratio [4]: 11.2
- Time (Rattus norvegicus [5]): 158.3 s

SMILES: CCCOC(=O)Cc1cc(OC)c(OCC(=O)N(CC)CC)cc1F
- Activity [1]: inactive
- HD50 (Rattus norvegicus [2]): 15.8 mg/kg
- TD50 [3]: 199 mg/kg
- selectivity ratio [4]: 12.6
- Time (Rattus norvegicus [5]): 79.3 s

SMILES: CCCOC(=O)Cc1cc(OCC)c(OCC(=O)N(CC)CC)cc1F
- Activity [1]: inactive
- HD50 (Rattus norvegicus [2]): 5.3 mg/kg
- TD50 [3]: 70.5 mg/kg
- selectivity ratio [4]: 13.3
- Time (Rattus norvegicus [5]): 215.3 s

SMILES: CCOc1cc(CC(=O)OC(C)C(F)(F)F)cc(F)c1OCC(=O)N(CC)CC (stereo unspecified)
- Activity [1]: inactive
- HD50 (Rattus norvegicus [2]): 18.3 mg/kg
- TD50 [3]: 181 mg/kg
- selectivity ratio [4]: 9.9
- Time (Rattus norvegicus [5]): 88.8 s

SMILES: CCOc1cc(CC(=O)OC(C)C)cc(F)c1OCC(=O)N(CC)CC
- Activity [1]: inactive
- HD50 (Rattus norvegicus [2]): 19.5 mg/kg
- TD50 [3]: 256 mg/kg
- selectivity ratio [4]: 13.1
- Time (Rattus norvegicus [5]): 92.7 s

SMILES: CCN(CC)C(=O)COc1c(F)cc(CC(=O)OC(C)C)cc1OC
- Activity [1]: inactive
- HD50 (Rattus norvegicus [2]): 14.2 mg/kg
- TD50 [3]: 176 mg/kg
- selectivity ratio [4]: 12.4
- Time (Rattus norvegicus [5]): 79.5 s

SMILES: CCN(CC)C(=O)COc1ccc(CC(=O)OC(C)C(F)(F)F)c(F)c1OC (stereo unspecified)
- Activity [1]: inactive
- HD50 (Rattus norvegicus [2]): 21.4 mg/kg
- TD50 [3]: 158 mg/kg
- selectivity ratio [4]: 7.4
- Time (Rattus norvegicus [5]): 92.6 s

SMILES: CCN(CC)C(=O)COc1c(F)cc(CC(=O)OCC(F)(F)F)cc1OC
- Activity [1]: inactive
- HD50 (Rattus norvegicus [2]): 16.9 mg/kg
- TD50 [3]: 165 mg/kg
- selectivity ratio [4]: 9.8
- Time (Rattus norvegicus [5]): 71.1 s

SMILES: CCOC(=O)Cc1cc(F)c(OCC(=O)N(CC)CC)c(OC)c1
- Activity [1]: inactive
- HD50 (Rattus norvegicus [2]): 17.2 mg/kg
- TD50 [3]: 239 mg/kg
- selectivity ratio [4]: 13.9
- Time (Rattus norvegicus [5]): 72 s

SMILES: CCCOC(=O)Cc1ccc(OCC(=O)N(CC)CC)c(OCC)c1F
- Activity [1]: inactive
- HD50 (Rattus norvegicus [2]): 16.6 mg/kg
- TD50 [3]: 173 mg/kg
- selectivity ratio [4]: 10.4
- Time (Rattus norvegicus [5]): 81.4 s

SMILES: CCCOC(=O)Cc1ccc(OCC(=O)N(CC)CC)c(OC)c1 [PROPANIDID]
- Activity [1]: inactive
- HD50 (Rattus norvegicus [2]): 8.5 mg/kg
- TD50 [3]: 80.6 mg/kg
- selectivity ratio [4]: 9.6
- Time (Rattus norvegicus [5]): 93.3 s
- Activity (Rattus norvegicus [6]): Active
- Activity (Rattus norvegicus [7]): Active

SMILES: CCOc1cc(CC(=O)OC(C)C)c(F)cc1OCC(=O)N(CC)CC
- Activity [1]: inactive
- HD50 (Rattus norvegicus [2]): 4.8 mg/kg
- TD50 [3]: 60.9 mg/kg
- selectivity ratio [4]: 12.7
- Time (Rattus norvegicus [5]): 226.2 s

SMILES: CCN(CC)C(=O)COc1cc(F)c(CC(=O)OC(C)C)cc1OC
- Activity [1]: inactive
- HD50 (Rattus norvegicus [2]): 11.5 mg/kg
- TD50 [3]: 155 mg/kg
- selectivity ratio [4]: 13.5
- Time (Rattus norvegicus [5]): 86.6 s

SMILES: CCN(CC)C(=O)COc1ccc(CC(=O)OC(C)C)c(F)c1OC
- Activity [1]: inactive
- HD50 (Rattus norvegicus [2]): 17.9 mg/kg
- TD50 [3]: 141 mg/kg
- selectivity ratio [4]: 7.9
- Time (Rattus norvegicus [5]): 91.4 s

SMILES: CCOc1cc(CC(=O)OC(C)CC)c(F)cc1OCC(=O)N(CC)CC (stereo unspecified)
- Activity [1]: inactive
- HD50 (Rattus norvegicus [2]): 8.4 mg/kg
- TD50 [3]: 90.7 mg/kg
- selectivity ratio [4]: 10.8
- Time (Rattus norvegicus [5]): 145.3 s

SMILES: CC(C)c1cccc(C(C)C)c1O [PROPOFOL]
- HD50 (Rattus norvegicus [2]): 5.3 mg/kg
- TD50 [3]: 30.7 mg/kg
- selectivity ratio [4]: 5.9
- Time (Rattus norvegicus [5]): 349.3 s

SMILES: CCOc1c(OCC(=O)N(CC)CC)ccc(CC(=O)OC(C)C(F)(F)F)c1F (stereo unspecified)
- Activity [1]: inactive
- HD50 (Rattus norvegicus [2]): 24.6 mg/kg
- TD50 [3]: 182 mg/kg
- selectivity ratio [4]: 7.4
- Time (Rattus norvegicus [5]): 89.8 s

SMILES: CCOc1c(OCC(=O)N(CC)CC)ccc(CC(=O)OC(C)C)c1F
- Activity [1]: inactive
- HD50 (Rattus norvegicus [2]): 17.9 mg/kg
- TD50 [3]: 165 mg/kg
- selectivity ratio [4]: 9.2
- Time (Rattus norvegicus [5]): 102.9 s

SMILES: CCOc1cc(CC(=O)OCC(F)(F)F)cc(F)c1OCC(=O)N(CC)CC
- Activity [1]: inactive
- HD50 (Rattus norvegicus [2]): 14.6 mg/kg
- TD50 [3]: 127 mg/kg
- selectivity ratio [4]: 8.7
- Time (Rattus norvegicus [5]): 76.6 s

SMILES: CCCOC(=O)Cc1cc(F)c(OCC(=O)N(CC)CC)c(OC)c1
- Activity [1]: inactive
- HD50 (Rattus norvegicus [2]): 16.8 mg/kg
- TD50 [3]: 188 mg/kg
- selectivity ratio [4]: 11.2
- Time (Rattus norvegicus [5]): 68.9 s

SMILES: CCOc1cc(CC(=O)OC(C)C(F)(F)F)c(F)cc1OCC(=O)N(CC)CC (stereo unspecified)
- Activity [1]: inactive
- HD50 (Rattus norvegicus [2]): 11.6 mg/kg
- TD50 [3]: 124 mg/kg
- selectivity ratio [4]: 10.7
- Time (Rattus norvegicus [5]): 238.3 s

SMILES: CCOc1c(OCC(=O)N(CC)CC)ccc(CC(=O)OCC(F)(F)F)c1F
- Activity [1]: inactive
- HD50 (Rattus norvegicus [2]): 21.1 mg/kg
- TD50 [3]: 162 mg/kg
- selectivity ratio [4]: 7.7
- Time (Rattus norvegicus [5]): 83.3 s

SMILES: CCOC(=O)Cc1ccc(OCC(=O)N(CC)CC)c(OC)c1F
- Activity [1]: inactive
- HD50 (Rattus norvegicus [2]): 21.6 mg/kg
- TD50 [3]: 201 mg/kg
- selectivity ratio [4]: 9.3
- Time (Rattus norvegicus [5]): 89.8 s
